Experimental data: ChEMBL document CHEMBL4813963, “Discovery of pyrazolo-thieno[3,2-d]pyrimidinylamino-phenyl acetamides as type-II pan-tropomyosin receptor kinase (TRK) inhibitors: Design, synthesis, and biological evaluation” (Eur J Med Chem, 2021)
pIC50: −log10 of the molar value.

How the values were obtained:
[1] = target: T1, High affinity nerve growth factor receptor (Homo sapiens, UniProt P04629); assay: Inhibition of recombinant His-tagged human TRKA (441 to 796 residues) expressed in baculovirus expression system at 20 uM using 5-FAM-EEPLYWSFPAKKK-CONH2 as substrate preincubated for 1 hr followed by substrate addition in presence of ATP by mobility shift assay relative to control
Target sequence in this assay (P04629 33-796 limits assumed): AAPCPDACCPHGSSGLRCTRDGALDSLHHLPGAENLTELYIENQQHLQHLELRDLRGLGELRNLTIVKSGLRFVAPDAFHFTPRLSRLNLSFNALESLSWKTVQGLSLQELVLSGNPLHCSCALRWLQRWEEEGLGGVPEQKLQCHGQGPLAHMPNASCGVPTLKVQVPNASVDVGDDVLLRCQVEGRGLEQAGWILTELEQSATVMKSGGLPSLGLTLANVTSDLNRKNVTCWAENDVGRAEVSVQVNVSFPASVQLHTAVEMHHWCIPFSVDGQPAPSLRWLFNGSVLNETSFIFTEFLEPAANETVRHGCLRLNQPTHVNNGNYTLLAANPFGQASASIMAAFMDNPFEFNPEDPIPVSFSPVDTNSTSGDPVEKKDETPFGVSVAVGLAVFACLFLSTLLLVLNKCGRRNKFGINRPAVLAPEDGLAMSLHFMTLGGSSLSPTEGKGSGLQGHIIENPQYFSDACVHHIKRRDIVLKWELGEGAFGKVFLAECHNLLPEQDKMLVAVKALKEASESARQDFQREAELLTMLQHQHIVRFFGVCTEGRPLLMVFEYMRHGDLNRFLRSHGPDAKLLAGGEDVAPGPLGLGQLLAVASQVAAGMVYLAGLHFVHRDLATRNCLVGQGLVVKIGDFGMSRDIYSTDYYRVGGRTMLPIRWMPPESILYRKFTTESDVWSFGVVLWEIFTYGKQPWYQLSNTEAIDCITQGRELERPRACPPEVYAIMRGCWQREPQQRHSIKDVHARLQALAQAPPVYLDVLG

KM12 = assay: Cytotoxicity against human KM12 cells assessed as reduction in cell viability incubated for 72 hrs by resazurin based assay; assay type: functional; conditions: KM12, 72 h
[2] = target: T1, High affinity nerve growth factor receptor; assay: Inhibition of recombinant His-tagged human TRKA (441 to 796 residues) expressed in baculovirus expression system using 5-FAM-EEPLYWSFPAKKK-CONH2 as substrate preincubated for 1 hr followed by substrate addition in presence of ATP by mobility shift assay
Target sequence in this assay (P04629 whole entry, the tested form may be a part): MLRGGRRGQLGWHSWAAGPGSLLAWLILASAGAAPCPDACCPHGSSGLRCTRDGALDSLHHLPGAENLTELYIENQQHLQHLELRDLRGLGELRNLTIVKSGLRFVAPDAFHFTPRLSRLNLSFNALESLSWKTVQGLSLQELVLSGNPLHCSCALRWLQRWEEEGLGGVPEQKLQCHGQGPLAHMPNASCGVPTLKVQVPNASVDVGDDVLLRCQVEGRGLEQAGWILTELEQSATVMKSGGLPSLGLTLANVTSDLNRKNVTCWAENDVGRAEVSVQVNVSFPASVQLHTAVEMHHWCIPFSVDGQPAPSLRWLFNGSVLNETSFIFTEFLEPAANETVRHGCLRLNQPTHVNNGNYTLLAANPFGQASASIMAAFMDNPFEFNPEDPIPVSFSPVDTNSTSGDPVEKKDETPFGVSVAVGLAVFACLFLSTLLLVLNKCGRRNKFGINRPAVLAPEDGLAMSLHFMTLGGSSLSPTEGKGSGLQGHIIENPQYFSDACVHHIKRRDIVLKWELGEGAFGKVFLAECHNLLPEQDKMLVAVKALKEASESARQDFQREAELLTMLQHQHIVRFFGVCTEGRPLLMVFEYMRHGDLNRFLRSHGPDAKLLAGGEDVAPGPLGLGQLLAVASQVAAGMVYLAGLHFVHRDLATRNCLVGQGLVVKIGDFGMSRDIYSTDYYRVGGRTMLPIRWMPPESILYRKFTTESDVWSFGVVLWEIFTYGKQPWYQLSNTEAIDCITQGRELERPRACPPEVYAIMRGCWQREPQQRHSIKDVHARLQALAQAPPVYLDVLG

SMILES	inhibition [1] [%]	pIC50 (KM12)	pIC50 [2]
Cn1nc(C(C)(C)C)cc1NC(=O)Cc1ccc(-c2ncnc3ccsc23)cc1	31.4	4.60	
O=C(Cc1ccc(Nc2ncnc3ccsc23)cc1)N[C@@H]1CCCC[C@@H]1O		< 3.70	4.38
